Experimental data: patent publication US20190021989A1, “GALENIC FORMULATION COMPRISING A TOPICAL DRUG” (NOVARTIS AG, priority 2015, published 2019)

Target: T1, TLR7 (Homo sapiens, UniProt Q9NYK1)
T1 sequence (Q9NYK1 27-1049): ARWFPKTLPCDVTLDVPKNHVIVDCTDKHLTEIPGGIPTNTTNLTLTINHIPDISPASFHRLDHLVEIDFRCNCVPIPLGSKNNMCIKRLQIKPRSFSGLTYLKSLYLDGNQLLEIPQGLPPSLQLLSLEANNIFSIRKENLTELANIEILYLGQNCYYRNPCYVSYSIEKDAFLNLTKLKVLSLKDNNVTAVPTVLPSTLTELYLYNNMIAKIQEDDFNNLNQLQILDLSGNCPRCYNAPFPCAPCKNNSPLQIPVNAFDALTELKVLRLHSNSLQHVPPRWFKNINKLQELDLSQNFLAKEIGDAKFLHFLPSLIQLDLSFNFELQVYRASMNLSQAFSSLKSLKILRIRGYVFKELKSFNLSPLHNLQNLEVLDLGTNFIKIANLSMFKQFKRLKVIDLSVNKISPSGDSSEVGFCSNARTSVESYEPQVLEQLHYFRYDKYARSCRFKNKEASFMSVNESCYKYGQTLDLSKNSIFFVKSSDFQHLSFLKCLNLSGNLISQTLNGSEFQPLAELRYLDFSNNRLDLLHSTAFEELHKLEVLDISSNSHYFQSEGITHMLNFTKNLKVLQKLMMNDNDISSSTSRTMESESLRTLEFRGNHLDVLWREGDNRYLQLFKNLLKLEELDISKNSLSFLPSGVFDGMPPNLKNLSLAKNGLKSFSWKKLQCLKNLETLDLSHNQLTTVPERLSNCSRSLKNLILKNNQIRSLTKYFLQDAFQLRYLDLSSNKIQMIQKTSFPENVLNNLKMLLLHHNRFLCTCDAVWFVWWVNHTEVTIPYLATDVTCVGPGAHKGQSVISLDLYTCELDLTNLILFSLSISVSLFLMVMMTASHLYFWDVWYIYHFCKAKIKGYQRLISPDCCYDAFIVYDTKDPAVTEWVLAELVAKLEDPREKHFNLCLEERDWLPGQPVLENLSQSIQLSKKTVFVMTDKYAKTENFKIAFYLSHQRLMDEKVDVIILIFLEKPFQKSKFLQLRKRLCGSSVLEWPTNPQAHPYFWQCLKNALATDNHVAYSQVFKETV
Experiment: TLR7 agonist potency compared with Aldara
Settings: more potent than Aldara

TLR7 agonist potency relative to Aldara: about 100 times
SMILES: Cc1ccc2c(c1)nc(N)c1ncc(CCc3ccc(OCCC(C)C)cc3C)cc12 [compound of formula (II)]
